Consider 1 compound from US20220378739A1, “NATURAL KILLER CELL IMMUNOTHERAPY FOR THE TREATMENT OF GLIOBLASTOMA AND OTHER CANCERS” (BOARD OF REGENTS, THE UNIVERSITY OF TEXAS SYSTEM, priority 2019, published 2022).

Data set [1] concerns TiNKs / HC-NK cells rendered dysfunctional by GSCs. The data set is described as follows: Reversal of established NK cell dysfunction (TiNKs ex vivo; NK cell recovery assays). Format: cell-based, human. On the procedure:
FIGS. 11A-11G. […] (FIG. 11A) NK cells were incubated with or without galunisertinib (10 μM) or LY2109761 (10 μM) for 48 hours. Representative zebra plots show their CD107a, IFN-γ, and TNF-α response to K562 targets. NK cells were gated on CD3-CD56+ lymphocytes. Inset numbers are the percentages of CD107a-, IFN-γ- or TNF-α-positive NK cells within the gated NK cell population. (FIGS. 11B-11C) NK cells were cultured either alone or with GSCs in a 1:1 ratio with or without LY2109761 or galunisertib for 48 hrs. Representative zebra plots and summary box plots show their CD107, IFN-γ, and TNF-α expression response to K562 (FIG. 11B) or GSC (FIG. 11C) targets. Effector:target ratio is 5:1. NK cells were defined as CD3-CD56+ lymphocytes. Inset numbers are the percentages of CD107a-, IFN-γ- or TNF-α-positive NK cells (n=7, n=4 respectively). (FIG. 11D) TiNK cells were cultured for 24 hours in media with 5 ng/ml IL-15 with or without galunisertib. Representative zebra plots and bar graph summary show their CD107, IFN-γ, and TNF-α response to K562 targets. Effector:target ratio is 5:1. NK cells were gated on CD3-CD56+ lymphocytes. Inset numbers are the percentages of CD107a-, IFN-γ- or TNF-α-positive NK cells within the indicated regions. (n=3). (FIG. 11E) TiNK cells and paired PB-NK cells from GBM patients were cultured in the presence or absence of galunisertib for 12 hours. The bar graphs summarize the mean fluorescence intensity (MFI) for their p-Smad⅔ expression. Paired t test was performed to determine statistical significance (n=3). (FIG. 11F) Specific lysis (^51Cr release assay) of K562 targets by NK cells. After 48 hours of culture alone (blue lines) or with GSCs, healthy donor NK cells were either left with GSCs (red lines), or purified and re-suspended in media for another 48 hours (black lines). NK cells were then collected and used for ^51Cr release assay (n=4). (FIG. 11G) Specific lysis (^51Cr release assay) of K562 targets by NK cells. After 48 hours of culture alone (blue lines) or with GSCs, healthy donor NK cells were either left with GSCs ([…]) or purified and cultured in SCGM media plus 5 ng/ml IL-15 with (black lines) or without galunisertib (10 μM) (gray lines) for […]. At the end of the culture period, their cytotoxicity was tested against k562 targets by ^51Cr release assay (n=4).
NK cells were cultured either with GSCs in a 1:1 ratio or alone for 48 hours. After 48 hours of co-incubation, NK cells were then either purified again by bead selection and resuspended in SCGM media or remained in culture with GSCs for an additional 48 hours and then used for ^51Cr release assay. In a second assay, after reselection, NK cells were cultured for another 5 days in SCGM in the presence of 5 ng/ml IL-15 with or without 10 μM galunisertib before use for ^51Cr release assay.

In a further data set the test system is K562 targets. Type of data set: cell-based, human. The conditions noted are these: NK cells alone, inhibitor 10 μM, 48 hours. The method, then:
NK cells were co-cultured for 5 hours with K562 or GSCs target cells at an optimized effector:target ratio of 5:1 together with CD107a PE-CF594 (BD Biosciences), monensin (BD GolgiStopTM) and BFA (Brefeldin A, Sigma Aldrich). NK cells were incubated without targets as the negative control and stimulated with PMA (50 ng/mL) and ionomycin ([…], Sigma Aldrich) as positive control. Cells were collected, washed and stained with surface antibodies (mentioned above), fixed/permeabilized (BD Biosciences) and stained with IFN-7 v450 and TNF-α Alexa700 (BD Biosciences) antibodies.
NK cell cytotoxicity was assessed using chromium (siCr) release assay. Briefly, K562 or GSCs target cells were labeled with siCr (PerkinElmer Life Sciences, Boston, Mass.) at 50 μCi/5×10^5 cells for 2 hours. ^51Cr-labeled K562/GSC targets (5×105) were incubated for 4 h with serially diluted magnetically isolated NK cells in triplicate. Supernatants were then harvested and analysed for ^51Cr content.
For studies of NK cell suppression by GSCs and human astrocytes, magnetically selected healthy NK cells were cultured in Serum-free Stem Cell Growth Medium (SCGM; CellGro/CellGenix) supplemented with 5% glutamine, 5 μM HEPES (both from GIBCO/Invitrogen), and 10% FCS (Biosera) in 96-well flat-bottomed plates (Nunc) at 100,000/100D11. NK cells were co-cultured either alone (positive control) or with GSCs or astrocytes at a 1:1 ratio for 48 hours at 37° C. before performing functional assays to assess NK cells cytotoxicity.
(§1) GSCs and purified NK cells were co-cultured for 48 hours in the presence of anti-TGFβ 123 (5 μg/ml) (R&D), HLA-ABC blocking antibody (clone W 6/32, Biolegend), CD44 blocking antibody (clone IM7, Biolegend), ILT-2 (CD85J) blocking antibody (clone HP-F1, ThermoFisher), CD155 blocking antibody (clone D171, GenTex), CD112 blocking antibody (clone TX31, Biolegend), 10 μM LY2109761, 10 μM galunisertib (LY2157299), 10 μM Cilengitide (Cayman Chemical) or 1 μM MMP-2/MMP-9 inhibitor I (Millipore). Cytotoxicity assays were then performed as described above.

For data set [2] the following is noted: literature; cited from earlier work.
Data set [3] relates to TGF-β1 Smad⅔ signaling pathway in NK cells. The data set is described as follows: Phospho-Smad⅔ assay in NK cells co-cultured with GSCs. The conditions noted are these: healthy control NK cells + GSCs; inhibitor 10 μM. Format: cell-based, human. The method, then: as §1
NK cells were stained with Live/dead-aqua and CD56 ECD (Beckman Coulter) for 20 min in the dark at RT, washed with PBS fixed for 10 min in the dark. After one wash, the cells were permeabilized (Beckman Coulter kit) and stained with p-(5465/5467)-Smad2/p-(5423/5425)/Smad3-Alexa 647 mAb Phosflow antibody (BD Biosciences) for 30 minutes at room temperature. Cells incubated with 10 ng/ml recombinant TGF-β for 45 minutes in 37° C. were used as positive control.

As to `Cc1cccc(-c2nn3c(c2-c2ccnc4ccc(C(N)=O)cc24)CCC3)n1` [galunisertib], the “reversal of GSC-induced dysfunction of HC-NK cells” value in data set [1] (NK cells purified after 48 hours with GSCs, then IL-15 5 ng/ml with or without galunisertib 10 μM) is reported as “did not reverse the dysfunction of HC-NK cells induced by GSCs”. Moreover, the “restoration of TiNK function (specific lysis of K562; CD107, IFN-γ, TNF-α)” value in data set [1] (TiNKs cultured 24 hours, galunisertib 10 μM or IL-15 5 ng/ml) was “failed to inactivate the TGF-β1 Smad⅔ signaling pathway and restore NK cell dysfunction”. The “TGF-β1 Smad⅔ signaling in TiNKs” value in data set [1] (TiNKs from GBM patients cultured ex vivo, galunisertib 12 hours or IL-15) is reported as “failed to inactivate the TGF-β1 Smad⅔ signaling pathway”. Also, the “NK cell function (CD107a, IFN-γ, TNF-α response to K562), NK cells without GSCs” value in the data set on K562 targets is reported as “neither inhibitor affected NK cell function”. Further, in data set [2], the “safety in glioblastoma patients” value is “has been used safely in GBM patients”. In data set [3], the “p-Smad⅔ expression (MFI) in NK cells co-cultured with GSCs” value was “prevented GSCs from activating the TGF-β1 Smad⅔ signaling pathway in NK cells”.
